Measurements as given in publication PMC4275348 (Molecular microbiology, 2014).
Positions count from the first letter of the chain named.

Key:
LuxN^H210N = biological target: T1, LuxN^H210N (Vibrio campbellii, UniProt A7MRY4, H210N); assay: Bioluminescence of V. harveyi XK006 carrying luxN H210N; type: cell-based, Vibrio harveyi; conditions: AHLs supplied at 10 μM
T1 sequence (A7MRY4 1-849 H210N): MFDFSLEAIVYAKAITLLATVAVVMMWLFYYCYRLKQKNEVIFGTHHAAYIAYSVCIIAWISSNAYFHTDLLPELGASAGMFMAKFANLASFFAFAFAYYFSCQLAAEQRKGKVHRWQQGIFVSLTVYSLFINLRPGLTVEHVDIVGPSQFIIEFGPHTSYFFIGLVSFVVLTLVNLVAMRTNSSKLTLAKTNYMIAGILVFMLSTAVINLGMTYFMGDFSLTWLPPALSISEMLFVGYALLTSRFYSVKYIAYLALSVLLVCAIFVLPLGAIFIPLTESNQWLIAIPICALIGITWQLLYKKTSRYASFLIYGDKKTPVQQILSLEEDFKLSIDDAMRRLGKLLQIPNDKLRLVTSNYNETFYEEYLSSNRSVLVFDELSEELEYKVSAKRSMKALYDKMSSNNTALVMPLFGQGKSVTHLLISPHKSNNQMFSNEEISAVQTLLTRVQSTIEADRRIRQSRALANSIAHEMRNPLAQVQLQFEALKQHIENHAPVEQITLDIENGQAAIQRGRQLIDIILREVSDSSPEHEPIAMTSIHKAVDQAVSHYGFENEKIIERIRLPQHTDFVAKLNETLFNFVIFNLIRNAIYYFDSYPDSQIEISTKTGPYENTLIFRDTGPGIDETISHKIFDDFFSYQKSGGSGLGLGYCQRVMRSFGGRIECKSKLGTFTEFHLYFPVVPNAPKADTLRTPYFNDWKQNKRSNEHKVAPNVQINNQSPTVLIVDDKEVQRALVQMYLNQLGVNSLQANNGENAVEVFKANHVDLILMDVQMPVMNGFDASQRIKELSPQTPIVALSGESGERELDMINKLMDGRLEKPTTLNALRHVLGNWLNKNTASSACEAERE

luxN^L166A/H210N = luxN^L166A/H210N (Vibrio campbellii, UniProt A7MRY4, H210N/L166A); conditions: AHLs added at 1 μM
LuxN [1] = biological target: T2, LuxN (Vibrio campbellii, UniProt A7MRY4); type: cell-based, Vibrio harveyi; conditions: for reduction in light production / effect on light production (antagonist activity): 1 μM AHL with 20 nM AI-1, V. harveyi TL25; for mechanism of antagonism: IC50 values measured at various concentrations of AI-1
LuxN [2] = biological target: T2, LuxN; conditions: 1 μM AHL; V. harveyi TL25
LuxN^L166A = LuxN^L166A (Vibrio campbellii, UniProt A7MRY4, L166A)
luxN^S184I/S230P = biological target: T3, luxN^S184I/S230P (Vibrio campbellii, UniProt A7MRY4, S184I/S230P); assay: Bioluminescence of V. harveyi XK006 carrying luxN S184I/S230P; type: cell-based, Vibrio harveyi
T3 sequence (A7MRY4 1-849 S184I/S230P): T1 sequence (A7MRY4 1-849 H210N) with S184I, N210H, S230P

LuxN^G147D/Y194H = biological target: T4, LuxN^G147D/Y194H (Vibrio campbellii, UniProt A7MRY4, G147D/Y194H); assay: Bioluminescence of V. harveyi XK006 carrying luxN G147D/Y194H; type: cell-based, Vibrio harveyi
T4 sequence (A7MRY4 1-849 G147D/Y194H): T1 sequence (A7MRY4 1-849 H210N) with G147D, Y194H, N210H

luxN^T159I/Y193K = biological target: T5, luxN^T159I/Y193K (Vibrio campbellii, UniProt A7MRY4, N193K/T159I); assay: Bioluminescence of V. harveyi XK006 carrying luxN T159I/Y193K; type: cell-based, Vibrio harveyi
T5 sequence (A7MRY4 1-849 T159I/N193K): T1 sequence (A7MRY4 1-849 H210N) with T159I, N193K, N210H

CCCCCC(=O)N[C@H]1CCOC1=O [C6 HSL]
induction of light production (LuxN^H210N): activated modest light production
light production (luxN^L166A/H210N): detected

CCCCCCCCCC(O)CC(=O)N[C@H]1CCOC1=O (stereo partly drawn) [3OH-C12 HSL]
reduction in light production (LuxN [1]): 100 fold

CCCCCCCCCC(=O)N[C@H]1CCOC1=O [C10 HSL]
mechanism of antagonism (LuxN [1]): behaved similarly to 3O-C12 HSL

phenoxy-thiolactone [PTL]
mechanism of antagonism (LuxN [1]): behaved similarly to 3O-C12 HSL

CC(=O)CC(=O)NC1CCOC1=O (stereo not drawn) [3O-C4 HSL]
effect on light production (antagonist activity) (LuxN [1]): did not decrease light production
induction of light production (LuxN [2]): did not induce light production

CCCCCC(=O)CC(=O)NC1CCOC1=O (stereo not drawn) [3O-C8 HSL]
detection (light production) (LuxN^L166A): only modest detection
light production (luxN^L166A/H210N): produced maximal light

CCCC(=O)CC(=O)NC1CCOC1=O (stereo not drawn) [3O-C6 HSL]
light production (luxN^L166A/H210N): detected

CCCCCCCCCCCC(=O)N[C@H]1CCOC1=O [C12 HSL]
response (dose-dependent light production) (luxN^S184I/S230P): none responded
response (dose-dependent light production) (LuxN^G147D/Y194H): none responded
response (dose-dependent light production) (luxN^T159I/Y193K): none responded

CCCCCCCC(O)CC(=O)N[C@H]1CCOC1=O (stereo partly drawn) [3OH-C10 HSL]
reduction in light production (LuxN [1]): 30 fold

CCCC(O)CC(=O)N[C@H]1CCOC1=O (stereo partly drawn) [3OH-C6 HSL]
effect on light production (antagonist activity) (LuxN [1]): little effect on light production
